In patent US20260092086A1, “ANTIMICROBIAL LASSO PEPTIDES” (priority 2022, published 2026):
“Also recorded” adds a separate entry of the source. Where a SMILES comes first, the peptide text is derived from it.

Tests used:
Enterobacter cloacae = test: Microscopy of cells treated with sub-MIC cloacaenodin; type: cell-based; details: sub-MIC cloacaenodin (230 nM), 16 hours in M63 media
Experimental: After a 96-well plate of E. cloacae grew for 16 hours at 30° C. with varying concentrations of cloacaenodin in M63 media, samples were imaged using a Zeiss Observer Z1 automated inverted microscope with a cage incubator kept at 37° C. The microscope was used with a 100× Zeiss chroma objective with oil immersion and 35 ms exposure transmitted light and controlled using SlideBook software. Images were viewed using the software ImageJ.

[1] = tested on: Enterobacter cloacae UCI102; test: MIC in M63 media (liquid); type: cell-based; details: clinical isolate Enterobacter cloacae UCI102
Experimental: For liquid inhibition assays, 5 mL LB broth was inoculated with 40-50 μL of an overnight culture of E. cloacae or E. amnigenus. […] The plate was shaken at 30° C. at 250 rpm for E. cloacae, and 37° C. at 250 rpm for E. amnigenus. The OD600 was measured at 8-hour and 16-hour increments. The MIC is defined as the lowest concentration of cloacaenodin for which growth (as assessed by the OD600) was inhibited.

Elastase = target: T1, Elastase (Sus scrofa, UniProt P00772); test: Protease digestion, elastase; type: in vitro ADME; details: 50 μM peptide, 25° C., about 1 hour, LC-MS
T1 construct: purchased Promega
T1 sequence (P00772 27-266): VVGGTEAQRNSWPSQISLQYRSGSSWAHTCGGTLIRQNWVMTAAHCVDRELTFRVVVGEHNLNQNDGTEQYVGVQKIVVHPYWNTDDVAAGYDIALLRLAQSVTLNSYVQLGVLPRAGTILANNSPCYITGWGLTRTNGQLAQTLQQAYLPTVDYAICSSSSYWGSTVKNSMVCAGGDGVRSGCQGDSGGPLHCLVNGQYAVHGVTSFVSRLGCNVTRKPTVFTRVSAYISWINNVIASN
Experimental: Elastase (Promega) was resuspended in 50 mM Tris pH 9.0. The enzyme was added to 50 μM peptide samples at a final enzyme concentration of about 0.04 mg/mL in a buffer of 50 mM Tris, pH 9. The reactions were then allowed to incubate at 25° C. for about 1 hour before quenching with 1% formic acid. An aliquot was then injected into LC-MS for analysis.

trypsin = target: T2, trypsin (Sus scrofa, UniProt P00761); test: Protease digestion, trypsin; type: in vitro ADME; details: 50 μM peptide, room temperature, 30 minutes to 1 hour, LC-MS
T2 construct: purchased Promega
T2 sequence (P00761 9-231): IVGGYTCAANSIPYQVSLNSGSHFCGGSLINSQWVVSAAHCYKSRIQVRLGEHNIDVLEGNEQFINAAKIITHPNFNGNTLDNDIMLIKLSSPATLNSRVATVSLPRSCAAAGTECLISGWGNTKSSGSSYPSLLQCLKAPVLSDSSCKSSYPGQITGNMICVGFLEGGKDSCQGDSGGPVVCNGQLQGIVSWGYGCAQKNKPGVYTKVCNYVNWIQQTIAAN
Experimental: Sequencing grade trypsin (Promega) was added to 50 μM peptide samples at a 1:100 trypsin: peptide weight ratio in a buffer of 50 mM ammonium bicarbonate. The reaction was allowed to proceed at room temperature for 30 minutes to 1 hour and then quenched by 1% formic acid. An aliquot was then injected onto LC-MS for analysis.

[2] = Stability of NMR sample kept at 4° C., LC-MS before and after acquisition; type: physicochemical; details: 95:5 H2O:D2O
Experimental: The structure of cloacaenodin in water was determined using two-dimensional (2D) nuclear magnetic resonance (NMR) analysis, a technique that has been successfully used to show the threaded shape of lasso peptides.^51 The possibility of cloacaenodin unthreading during the NMR acquisition was addressed by keeping the sample at 4° C. throughout acquisition. […] As an additional control, one-dimensional (1D) NMR spectra were acquired in between each 2D NMR spectrum acquisition to ensure stability of the sample (FIG. 12).
NMR studies were performed at the Princeton University Department of Chemistry NMR Facilities using a Bruker Avance III HD 800 MHz NMR spectrometer. Purified cloacaenodin was prepared at a concentration of 6.7 mg/mL (2.6 mM) in 95:5 H2O:D2O. The NMR spectra were acquired at 4° C. to minimize any cloacaenodin unthreading. A ^1H-^1H TOCSY spectrum at a mixing time of 80 ms was acquired, as well as 1H-1H NOESY spectra at 150 ms and 300 ms. Water suppression was used in the collection of all NMR data. To verify that the lasso peptide was not undergoing unthreading, 1D 1H NMR data were collected in between each 2D NMR acquisition and analyzed to see that the 1D spectra stayed consistent. […]

Thermolysin = target: T3, Thermolysin (Geobacillus stearothermophilus, UniProt P43133); test: Protease digestion, thermolysin; type: in vitro ADME; details: 50 μM peptide, 30° C., about 1 hour, LC-MS
T3 construct: purchased Sigma-Aldrich
T3 sequence (P43133 236-551): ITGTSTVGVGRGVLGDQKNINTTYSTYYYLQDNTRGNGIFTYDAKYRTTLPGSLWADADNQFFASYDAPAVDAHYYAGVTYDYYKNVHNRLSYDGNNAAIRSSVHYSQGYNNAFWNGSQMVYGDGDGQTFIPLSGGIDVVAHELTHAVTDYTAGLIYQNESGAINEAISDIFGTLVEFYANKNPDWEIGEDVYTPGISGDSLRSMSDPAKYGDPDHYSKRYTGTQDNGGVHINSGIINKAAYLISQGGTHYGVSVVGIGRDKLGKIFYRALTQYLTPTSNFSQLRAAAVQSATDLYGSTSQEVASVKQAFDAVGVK
Experimental: Thermolysin from Geobacillus stearothermophilus (Sigma-Aldrich) was first resuspended in 50 mM Tris, 0.5 mM CaCl2). The enzyme was then added to 50 μM peptide samples at a final concentration of about 0.04 mg/mL in a buffer of 50 mM Tris, 0.5 mM CaCl2), pH 8. The reactions were then allowed to incubate at 30° C. for about 1 hour before quenching with 1% formic acid. An aliquot was then injected onto LC-MS for analysis.

[3] = tested on: Enterobacter nimipressuralis DSM 18955; test: Spot-on-lawn assay in M63 agar; type: cell-based
Experimental: (§1) Cloacaenodin was evaluated against several common laboratory strains as well as commercially acquired strains using a spot-on-lawn assay.^45 Strains were streaked out onto LB agar plates and incubated overnight at their recommended temperatures. A single colony was then used to inoculate an overnight culture in 5 mL of LB broth. After shaking at 250 rpm at the recommended temperature for each strain, 50 μL of the overnight culture was used to inoculate 5 mL of LB broth (volume ratio 1:100). These cultures were grown for a few hours until they reached the exponential phase (OD600˜0.4-0.6) before being added to 10 mL of soft M63 agar at a final cell density of 10^7 CFUs/mL, or 10^8 CFUs total in 10 mL. The M63 soft agar was composed of 2 g/L of (NH4)2SO4 (EMD MilliporeSigma), 13.6 g/L of KH2PO4 (Fisher), 40 mg/L of each of the 20 common amino acids, 0.2% glucose (Sigma), 0.00005% w/v thiamine hydrochloride (Sigma), and 0.65% w/v bacteriological-grade agar (Apex Bioresearch). […] Upon solidification, 10 μL of purified cloacaenodin in water at two-fold dilutions were then spotted onto the agar and allowed to dry. The plates were incubated overnight at the strains' recommended temperatures and analyzed the next morning for activity. The MIC is defined as the last dilution where a spot was visible.

[4] = tested on: Klebsiella aerogenes ATCC 13048; test: Spot-on-lawn assay in M63 agar; type: cell-based; details: purified cloacaenodin in water
Experimental: as §1

[5] = tested on: Salmonella enterica serovar Newport; test: Spot-on-lawn assay in M63 agar; type: cell-based; details: purified cloacaenodin in water
Experimental: as §1

[6] = tested on: Enterobacter kobei BAA-260; test: Spot-on-lawn assay in M63 agar; type: cell-based; details: purified cloacaenodin in water
Experimental: as §1

[7] = tested on: Enterobacter hormaechei ATCC 700323; test: Spot-on-lawn assay in M63 agar; type: cell-based; details: purified cloacaenodin in water
Experimental: as §1

E. coli MG1655 = test: Spot-on-lawn assay in M63 agar; type: cell-based, Escherichia coli; details: purified cloacaenodin in water
Experimental: as §1

[8] = listed as Threaded cloacaenodin
[9] = listed as threaded cloacaenodin

Question: What does the source list for `CC[C@H](C)[C@@H]1NC(=O)[C@H](CCCNC(=N)N)NC(=O)[C@H](CC(=O)O)NC(=O)[C@H](C(C)C)NC(=O)[C@H](CO)NC(=O)[C@H](Cc2c[nH]cn2)NC(=O)CNC(=O)CC[C@@H](C(=O)N[C@@H](Cc2ccc(O)cc2)C(=O)N[C@@H](Cc2ccccc2)C(=O)NCC(=O)N2CCC[C@H]2C(=O)N2CCC[C@H]2C(=O)NCC(=O)N[C@@H](CC(C)C)C(=O)N2CCC[C@H]2C(=O)NCC(=O)N2CCC[C@H]2C(=O)N[C@H](C(=O)N[C@@H](CC(C)C)C(=O)N[C@@H](Cc2ccccc2)C(=O)N[C@@H](Cc2ccc(O)cc2)C(=O)N[C@@H](CO)C(=O)O)C(C)C)NC(=O)[C@@H]2CCCN2C1=O` [cloacaenodin] (HELM PEPTIDE1{G.H.S.V.D.R.I.P.E.Y.F.G.P.P.G.L.P.G.P.V.L.F.Y.S}$PEPTIDE1,PEPTIDE1,1:R1-9:R3$$$V2.0; C-terminus assumed)?
Answer: filamentation phenotype (Enterobacter cloacae): degree of filamentation; also recorded: filamentation phenotype; MIC in M63 media [1]: (agar)/230 nM; proteolysis by elastase (Elastase; [8]): resistant to elastase digestion; proteolysis by elastase (Elastase; [9]): remained resistant to proteolysis; proteolysis by trypsin (trypsin; [8]): resistant to trypsin digestion; proteolysis by trypsin (trypsin; [9]): remained resistant to proteolysis; threaded state after NMR acquisition [2]: remained threaded; proteolysis by thermolysin (Thermolysin; [8]): resistant to thermolysin digestion; proteolysis by thermolysin (Thermolysin; [9]): remained resistant to proteolysis; strain susceptible to cloacaenodin ([3]; Lelliottia nimipressuralis DSM 18955): * Lelliottia nimipressuralis; antimicrobial activity (zones of inhibition) ([3]; spot-on-lawn, M63 agar, purified cloacaenodin in water): zones of inhibition in the low micromolar range; antimicrobial activity (zones of inhibition) [4]: no observed activity; antimicrobial activity (zones of inhibition) [5]: no observed activity; antimicrobial activity (zones of inhibition) [6]: no observed activity; antimicrobial activity (zones of inhibition) [7]: no observed activity; antimicrobial activity (zones of inhibition) (E. coli MG1655): no observed activity
